pIC50: −log10 of the molar value. Positions of bridges follow the written chain, without caps; N, C: chain ends. Non-standard residues stand in square brackets, D forms with d. Residues, ends and D or L forms follow the SMILES beside them. Ala(benzothiazol-2-yl) = N[C@@H](Cc1nc2ccccc2s1)C(=O)O; Ala(indol-4-yl) = N[C@@H](Cc1cccc2[nH]ccc12)C(=O)O; Trp(1-Me) = Cn1cc(C[C@H](N)C(=O)O)c2ccccc21; Phe(4-Cl) = N[C@@H](Cc1ccc(Cl)cc1)C(=O)O; Bta = N[C@@H](Cc1csc2ccccc12)C(=O)O; Hyp = O=C(O)[C@@H]1C[C@@H](O)CN1; NMeNle = CCCC[C@H](NC)C(=O)O; NMeA = CN[C@@H](C)C(=O)O; Dap = NC[C@H](N)C(=O)O; Aib = CC(C)(N)C(=O)O; Sar = CNCC(=O)O
Columns and labels:
[1] = molecular target: T1, LK35.2-hPD-L1 cells / PE-labeled PD-1-Ig (Homo sapiens, UniProt Q9NZQ7); experiment: LK35.2-hPD-L1 cell binding high-content screening assay; type: cell-based; details: cluster symbol; cell line of CBA not given (LK35.2-hPD-L1 or 293T-hPD-L1); read-out: CBA IC50 cluster
T1 construct: expressed in transfected cells; host or cells: LK35.2 mouse B cell line
T1 sequence (Q9NZQ7 19-290): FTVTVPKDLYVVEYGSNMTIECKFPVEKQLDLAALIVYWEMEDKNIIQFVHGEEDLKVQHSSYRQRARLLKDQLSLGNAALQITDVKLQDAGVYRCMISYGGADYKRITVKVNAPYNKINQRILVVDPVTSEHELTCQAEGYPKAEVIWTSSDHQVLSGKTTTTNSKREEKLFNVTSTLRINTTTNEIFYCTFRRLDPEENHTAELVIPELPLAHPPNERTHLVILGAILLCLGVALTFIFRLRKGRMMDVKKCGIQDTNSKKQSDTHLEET
Summary of the method: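 Readout: high-content imaging of PE-PD-1-Ig bound to LK35.2-hPD-L1 cells. Cells plated overnight (RPMI/10% FCS); compound + 1 nM PE-PD-1-Ig, 1 h, 37 °C; 3× dPBS wash before imaging.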

Human PD-L1/PD-1 = molecular target: T2, Human PD-L1/PD-1 (Homo sapiens, UniProt Q9NZQ7); experiment: HTRF PD-1-Ig/PD-L1-His binding assay (human PD-L1); details: cluster symbol; read-out: HTRF IC50 cluster
T2 construct: made in house; host or cells: HEK293T
T2 sequence (Q9NZQ7 with tags, fused parts or gaps): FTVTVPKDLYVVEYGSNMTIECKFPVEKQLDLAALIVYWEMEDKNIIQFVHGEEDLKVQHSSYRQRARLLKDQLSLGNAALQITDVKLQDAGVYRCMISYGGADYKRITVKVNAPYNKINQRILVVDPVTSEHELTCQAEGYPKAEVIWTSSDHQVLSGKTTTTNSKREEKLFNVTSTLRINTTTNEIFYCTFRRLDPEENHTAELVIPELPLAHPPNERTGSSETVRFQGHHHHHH
Summary of the method: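 Ig- and His-fused extracellular PD-1/PD-L1 binding in BSA/Tween-20 dPBS. HTRF with Eu anti-Ig (1 nM final) and APC anti-His (20 nM final).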

pIC50 [1] | pIC50 (Human PD-L1/PD-1) | Structure (SMILES)
< 7.13 | < 7.52 | CCCC[C@H]1C(=O)N(C)[C@@H](CCCC)C(=O)N[C@@H](CCCNC(=N)N)C(=O)N[C@H](C(=O)NCC(N)=O)CSCC(=O)N[C@@H](Cc2ccccc2)C(=O)N(C)[C@@H](C)C(=O)N[C@@H](CC(N)=O)C(=O)N2CCC[C@H]2C(=O)N[C@@H](Cc2cnc[nH]2)C(=O)N[C@@H](CC(C)C)C(=O)N(C)CC(=O)N[C@@H](Cc2c[nH]c3ccccc23)C(=O)NC(C)(C)C(=O)N[C@@H](Cc2c[nH]c3ccccc23)C(=O)N1C [Example 1116] ({CH2CO}-F[NMeA]NPHL[Sar]W[Aib]W[NMeNle][NMeNle]RCG-NH2; thioether N-14)
7.14 to 8.32 | 7.52 to 8.17 | CCCC[C@H]1C(=O)N(C)[C@@H](CCCC)C(=O)N[C@@H](CCCNC(=N)N)C(=O)N[C@H](C(=O)NCC(N)=O)CSCC(=O)N[C@@H](Cc2ccc(Cl)cc2)C(=O)N(C)[C@@H](C)C(=O)N[C@@H](CC(N)=O)C(=O)N2CCC[C@H]2C(=O)N[C@@H](Cc2cnc[nH]2)C(=O)N[C@@H](CC(C)C)C(=O)N2CCC[C@H]2C(=O)N[C@@H](Cc2c[nH]c3ccccc23)C(=O)N[C@@H](CO)C(=O)N[C@@H](Cc2c[nH]c3ccccc23)C(=O)N1C [Example 1117] ({CH2CO}-[Phe(4-Cl)][NMeA]NPHLPWSW[NMeNle][NMeNle]RCG-NH2; thioether N-14)
8.33 to 9.80 | 7.52 to 8.17 | CCCC[C@H]1C(=O)N(C)[C@@H](CCCC)C(=O)N[C@@H](CCCNC(=N)N)C(=O)N[C@H](C(=O)NCC(N)=O)CSCC(=O)N[C@@H](Cc2ccc(O)cc2)C(=O)N(C)[C@@H](C)C(=O)N[C@@H](CC(N)=O)C(=O)N2CCC[C@H]2C(=O)N[C@@H](CN)C(=O)N[C@@H](CC(C)C)C(=O)N2C[C@H](O)C[C@H]2C(=O)N[C@@H](Cc2c[nH]c3ccccc23)C(=O)N[C@@H](CO)C(=O)N[C@@H](Cc2csc3ccccc23)C(=O)N1C [Example 1118] ({CH2CO}-Y[NMeA]NP[Dap]L[Hyp]WS[Bta][NMeNle][NMeNle]RCG-NH2; thioether N-14)
8.33 to 9.80 | 7.52 to 8.17 | CCCC[C@H]1C(=O)N(C)[C@@H](CCCC)C(=O)N[C@@H](CCCNC(=N)N)C(=O)N[C@H](C(=O)NCC(N)=O)CSCC(=O)N[C@@H](Cc2ccc(O)cc2)C(=O)N(C)[C@@H](C)C(=O)N[C@@H](CC(N)=O)C(=O)N2CCC[C@H]2C(=O)N[C@@H](Cc2cnc[nH]2)C(=O)N[C@@H](CC(C)C)C(=O)N2C[C@H](O)C[C@H]2C(=O)N[C@@H](Cc2c[nH]c3ccccc23)C(=O)N[C@@H](CO)C(=O)N[C@@H](Cc2c[nH]c3ccccc23)C(=O)N1C [Example 1119]
8.33 to 9.80 | 7.52 to 8.17 | CCCC[C@H]1C(=O)N(C)[C@@H](CCCC)C(=O)N[C@@H](CCCNC(=N)N)C(=O)N[C@H](C(=O)NCC(N)=O)CSCC(=O)N[C@@H](Cc2cccc3[nH]ccc23)C(=O)N(C)[C@@H](C)C(=O)N[C@@H](CC(N)=O)C(=O)N2CCC[C@H]2C(=O)N[C@@H](Cc2cnc[nH]2)C(=O)N[C@@H](CC(C)C)C(=O)N2CCC[C@H]2C(=O)N[C@@H](Cc2c[nH]c3ccccc23)C(=O)N[C@@H](CO)C(=O)N[C@@H](Cc2csc3ccccc23)C(=O)N1C [Example 1120] ({CH2CO}-[Ala(indol-4-yl)][NMeA]NPHLPWS[Bta][NMeNle][NMeNle]RCG-NH2; thioether N-14)
8.33 to 9.80 | 7.52 to 8.17 | CCCC[C@H]1C(=O)N(C)[C@@H](CCCC)C(=O)N[C@@H](C)C(=O)N[C@H](C(=O)NCC(N)=O)CSCC(=O)N[C@@H](Cc2ccc(O)cc2)C(=O)N(C)[C@@H](C)C(=O)N[C@@H](CC(=O)O)C(=O)N2CCC[C@H]2C(=O)N[C@@H](Cc2cnc[nH]2)C(=O)N[C@@H](CC(C)C)C(=O)N2CCC[C@H]2C(=O)N[C@@H](Cc2c[nH]c3ccccc23)C(=O)N[C@@H](CO)C(=O)N[C@@H](Cc2c[nH]c3ccccc23)C(=O)N1C [Example 1121] ({CH2CO}-Y[NMeA]DPHLPWSW[NMeNle][NMeNle]ACG-NH2; thioether N-14)
8.33 to 9.80 | 7.52 to 8.17 | CCCC[C@H]1C(=O)N(C)[C@@H](CCCC)C(=O)N[C@@H](CCCNC(=N)N)C(=O)N[C@H](C(=O)NCC(N)=O)CSCC(=O)N[C@@H](Cc2ccc(O)cc2)C(=O)N(C)[C@@H](C)C(=O)N[C@@H](CC(=O)O)C(=O)N2CCC[C@H]2C(=O)N[C@@H](Cc2cnc[nH]2)C(=O)N[C@@H](CC(C)C)C(=O)N2CCC[C@H]2C(=O)N[C@@H](Cc2c[nH]c3ccccc23)C(=O)N[C@@H](CO)C(=O)N[C@@H](Cc2c[nH]c3ccccc23)C(=O)N1C [Example 1122] ({CH2CO}-Y[NMeA]DPHLPWSW[NMeNle][NMeNle]RCG-NH2; thioether N-14)
8.33 to 9.80 | 8.17 to 9.41 | CCCC[C@H]1C(=O)N(C)[C@@H](CCCC)C(=O)N[C@@H](CCCN)C(=O)N[C@H](C(=O)NCC(N)=O)CSCC(=O)N[C@@H](Cc2ccc(O)cc2)C(=O)N(C)[C@@H](C)C(=O)N[C@@H](CC(N)=O)C(=O)N2CCC[C@H]2C(=O)N[C@@H](Cc2cnc[nH]2)C(=O)N[C@@H](CC(C)C)C(=O)N2C[C@H](O)C[C@H]2C(=O)N[C@@H](Cc2c[nH]c3ccccc23)C(=O)N[C@@H](CO)C(=O)N[C@@H](Cc2c[nH]c3ccccc23)C(=O)N1C [Example 1123]
7.14 to 8.32 | 7.52 to 8.17 | CCCC[C@H]1C(=O)N(C)[C@@H](CCCC)C(=O)N[C@@H](CCCNC(=N)N)C(=O)N[C@H](C(=O)NCC(N)=O)CSCC(=O)N[C@@H](Cc2ccc(Cl)cc2)C(=O)N(C)[C@@H](C)C(=O)N[C@@H](CC(N)=O)C(=O)N2CCC[C@H]2C(=O)N[C@@H](Cc2cnc[nH]2)C(=O)N[C@@H](CC(C)C)C(=O)N2CCC[C@H]2C(=O)N[C@@H](Cc2c[nH]c3ccccc23)C(=O)N[C@@H](CO)C(=O)N[C@@H](Cc2csc3ccccc23)C(=O)N1C [Example 1124] ({CH2CO}-[Phe(4-Cl)][NMeA]NPHLPWS[Bta][NMeNle][NMeNle]RCG-NH2; thioether N-14)
8.33 to 9.80 | 7.52 to 8.17 | CCCC[C@H]1C(=O)N(C)[C@@H](CCCC)C(=O)N[C@@H](CCCNC(=N)N)C(=O)N[C@H](C(=O)NCC(N)=O)CSCC(=O)N[C@@H](Cc2ccc(O)cc2)C(=O)N(C)[C@@H](C)C(=O)N[C@@H](CC(N)=O)C(=O)N2CCC[C@H]2C(=O)N[C@@H](Cc2cnc[nH]2)C(=O)N[C@@H](CC(C)C)C(=O)N2CC(F)(F)C[C@H]2C(=O)N[C@@H](Cc2c[nH]c3ccccc23)C(=O)N[C@@H](CO)C(=O)N[C@@H](Cc2c[nH]c3ccccc23)C(=O)N1C [Example 1126]
8.33 to 9.80 | 8.17 to 9.41 | CCCC[C@H]1C(=O)N(C)[C@@H](CCCC)C(=O)N[C@@H](CCCNC(=N)N)C(=O)N[C@H](C(=O)NCC(N)=O)CSCC(=O)N[C@@H](Cc2ccc(O)cc2)C(=O)N(C)[C@@H](C)C(=O)N[C@@H](CC(N)=O)C(=O)N2CCC[C@H]2C(=O)N[C@@H](CN)C(=O)N[C@@H](CCC(=O)O)C(=O)N2CCC[C@H]2C(=O)N[C@@H](Cc2c[nH]c3ccccc23)C(=O)N[C@@H](CO)C(=O)N[C@@H](Cc2csc3ccccc23)C(=O)N1C [Example 1127] ({CH2CO}-Y[NMeA]NP[Dap]EPWS[Bta][NMeNle][NMeNle]RCG-NH2; thioether N-14)
8.33 to 9.80 | 7.52 to 8.17 | CCCC[C@H]1C(=O)N(C)[C@@H](CCCC)C(=O)N[C@@H](CCCNC(=N)N)C(=O)N[C@H](C(=O)NCC(N)=O)CSCC(=O)N[C@@H](Cc2ccc(O)cc2)C(=O)N(C)[C@@H](C)C(=O)N[C@@H](CC(N)=O)C(=O)N2CCC[C@H]2C(=O)N[C@@H](CN)C(=O)N[C@@H](CCC(=O)O)C(=O)N2C[C@H](O)C[C@H]2C(=O)N[C@@H](Cc2c[nH]c3ccccc23)C(=O)N[C@@H](CO)C(=O)N[C@@H](Cc2csc3ccccc23)C(=O)N1C [Example 1128] ({CH2CO}-Y[NMeA]NP[Dap]E[Hyp]WS[Bta][NMeNle][NMeNle]RCG-NH2; thioether N-14)
< 7.13 | < 7.52 | CCCC[C@H]1C(=O)N(C)[C@@H](CCCC)C(=O)N[C@@H](CCCNC(=N)N)C(=O)N[C@H](C(=O)NCC(N)=O)CSCC(=O)N[C@@H](Cc2ccc(O)cc2)C(=O)N(C)[C@@H](C)C(=O)N[C@@H](CC(N)=O)C(=O)N2CCC[C@H]2C(=O)N[C@@H](Cc2cnc[nH]2)C(=O)N[C@@H](CC(C)C)C(=O)N2CCC[C@H]2C(=O)N[C@@H](Cc2c[nH]c3ccccc23)C(=O)N[C@@H](CO)C(=O)N[C@@H](Cc2nc3ccccc3s2)C(=O)N1C [Example 1129] ({CH2CO}-Y[NMeA]NPHLPWS[Ala(benzothiazol-2-yl)][NMeNle][NMeNle]RCG-NH2; thioether N-14)
8.33 to 9.80 | < 7.52 | CCCC[C@H]1C(=O)N(C)[C@@H](CCCC)C(=O)N[C@@H](CCCNC(=N)N)C(=O)N[C@H](C(=O)NCC(N)=O)CSCC(=O)N[C@@H](Cc2ccc(O)cc2)C(=O)N(C)[C@@H](C)C(=O)N[C@@H](CC(N)=O)C(=O)N2CCC[C@H]2C(=O)N[C@@H](Cc2cnc[nH]2)C(=O)N[C@@H](CC(C)C)C(=O)N2CCC[C@H]2C(=O)N[C@@H](Cc2c[nH]c3ccccc23)C(=O)N[C@@H](CO)C(=O)N[C@@H](Cc2cn(C)c3ccccc23)C(=O)N1C [Example 1130] ({CH2CO}-Y[NMeA]NPHLPWS[Trp(1-Me)][NMeNle][NMeNle]RCG-NH2; thioether N-14)
8.33 to 9.80 | 8.17 to 9.41 | CCCC[C@H]1C(=O)N(C)[C@@H](CCCC)C(=O)N[C@@H](CCN)C(=O)N[C@H](C(=O)NCC(N)=O)CSCC(=O)N[C@@H](Cc2ccc(O)cc2)C(=O)N(C)[C@@H](C)C(=O)N[C@@H](CC(N)=O)C(=O)N2CCC[C@H]2C(=O)N[C@@H](Cc2cnc[nH]2)C(=O)N[C@@H](CC(C)C)C(=O)N2C[C@H](O)C[C@H]2C(=O)N[C@@H](Cc2c[nH]c3ccccc23)C(=O)N[C@@H](CO)C(=O)N[C@@H](Cc2c[nH]c3ccccc23)C(=O)N1C [Example 1131]

From patent US9850283B2, “Macrocyclic inhibitors of the PD-1/PD-L1 and CD80(B7-1)/PD-L1 protein/protein interactions” (BRISTOL-MYERS SQUIBB COMPANY, priority 2013, dated 2017)
